Experimental data reported in patent US20070213291A1, “Therapeutically useful synthetic oligonucleotides” (priority 1999, published 2007).

Experiments:
[1] = tested on: THP-1 human acute monocytic leukemia cells; experiment: Cytokine production by THP-1 cells (ELISA); format: cell-based; conditions: THP-1, 1×10^6 cells, 100 μg/ml, 48 h; for ↑ IL-12 (fold increase treated vs control cells): p70 complex and free p40
Outline: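 1×10^6 cells exposed to 100 μg/ml of each oligonucleotide sequence for 48 h at 37° C in 5% CO2, unless stated otherwise. Cytokines quantified in culture supernatant by ELISA, IL-12 assay detecting both p70 and free p40; values are fold increase over untreated control cells.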

IMC tumor = conditions: premixed with IMC cells and injected into CDF-1 mice; cited from earlier work
[2] = tested on: Jurkat human leukemia T cells; experiment: Inhibition of Jurkat human leukemia T cell proliferation (MTT reduction); format: cell-based; conditions: 100 μg/ml sequence, 48 h, 2.5×10^5 cells/ml
Outline: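 Jurkat cells at 2.5×10^5 cells/ml exposed to 100 μg/ml of 2–45-base A/C/G/T sequences (0 μg/ml control) for 48 h, 37° C, 5% CO2. Viability by MTT reduction read at 570 nm.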

telomerase = target: T1, telomerase (Homo sapiens, UniProt O14746); experiment: PCR-telomeric repeat amplification protocol (TRAP) on Jurkat T cell extracts; format: biochemical; conditions: concentrations between 1 and 100 μg/ml, extracts from 2×10^5 Jurkat T cells
T1 construct: extracts from 2×10^5 Jurkat T cells were assayed using the PCR-telomeric repeat amplification protocol (TRAP); endogenous in cells; host or cells: Jurkat T cells (cell extract)
Protocol: To determine telomerase activity, extracts from 2×10^5 Jurkat T cells were assayed using the PCR-telomeric repeat amplification protocol (TRAP) (Roche, Laval, Québec, Canada).

[3] = tested on: Jurkat human leukemia T cells; experiment: Cell cycle stage in Jurkat cells (propidium iodide flow cytometry); format: cell-based; conditions: Jurkat, 24 h, 100 μg/ml
Outline: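 Exponentially growing Jurkat cells were exposed for 24 h to 2–45-base A/C/G/T oligonucleotides, or at 1×10^6 cells/ml to 6-base GT and AC strands, alone (heated 10 min, 65 °C) or hybridized 1:1. Detergent-, trypsin-, RNase- and spermine-treated nuclei were propidium iodide-stained and scored for G0/G1, early/mid/late S and G2/M by doublet-discriminating flow cytometry.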

[4] = tested on: LNCaP human prostate cancer cells; experiment: Inhibition of LNCaP cell proliferation (MTT); format: cell-based; conditions: 100 μg/ml, 48 h, 5×10^5 cells/ml
Protocol: (§1) Cells were seeded in 6 (1 ml/well), 24 (0.5 ml/well) or 96 (0.1 ml/well) well flat-bottom microplates and were maintained at 37° C. in a 5% CO2 atmosphere. Unless stated otherwise, 2.5×10^5 cells/ml were incubated with 0 μg/ml (control) and 100 μg/ml (treated) of 2 to 45 base sequences containing A, C, G and T for 48 h.
(§2) Cell proliferation was measured using dimethylthiazol-diphenyl-tetrazolium (MTT) reduction (Mosman et al. J. Immunol. Methods 65:55, 1983). MTT was measured at a wavelength of 570 nm using a multiplate spectrophotometer reader (ELX800, Bio-TEK Instruments Inc., Winooski, Vt.).
LNCaP prostate cancer cells are a TGF-beta 1 receptor negative, […], metastatic human solid tumor model. LNCaP cells (5×10^5 cells/ml) were incubated with 6 base GT sequences (Table 9).

[5] = tested on: EL-4 murine T lymphoma cells; experiment: Inhibition of EL-4 cell proliferation (MTT); format: cell-based; conditions: 100 μg/ml, 48 h
Protocol: as §1, §2
EL-4 murine lymphoma T cells are a suspension tumor model. EL-4 murine lymphoma T cells were incubated with 6, 18, 27 and 33 base GT sequences and with a 15 base ACG sequence (Table 18).

[6] = tested on: MCF-7 human breast cancer cells; experiment: Inhibition of MCF-7 cell proliferation (MTT); format: cell-based; conditions: 100 μg/ml, 48 h, 5×10^5 cells/ml
Outline: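 Cells at 2.5×10^5 cells/ml (GT 3- and 6-base series at 5×10^5 cells/ml) treated with 100 μg/ml of 2-45-base oligonucleotide sequences versus untreated control for 48 h at 37 °C, 5% CO2. Proliferation read by MTT reduction at 570 nm.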

[7] = tested on: MCF-7 human breast cancer cells; experiment: Cell cycle stage in MCF-7 cells (propidium iodide flow cytometry); format: cell-based; conditions: MCF-7, 5×10^5 cells/ml, 24 h
Protocol: Cell cycle stage was determined using a […]™ PLUS DNA commercial kit (Becton Dickinson). Briefly, nuclei from cells were obtained by dissolving the cell membrane in a nonionic detergent, eliminating the cell cytoskeleton and nuclear proteins with trypsin, digesting the cellular RNA with RNase and stabilizing the nuclear chromatin with spermine. Propidium iodide was added to the cell nuclei and their fluorescence was analyzed in a flow cytometer equipped with electronic doublet discrimination capability (FACSCalibur, Becton Dickinson, San Jose, Calif.). Accumulation of cells in G0/G1, early S (SE), mid S (SM), late S (SL) or G2/M phases of the cell cycle was analyzed using MODFIT LT software (Verity Software House Inc., Topsham, Mass.).
Exponentially growing Jurkat human leukemia T cells (Table 28) and MCF-7 human breast cancer cells (5×10^5 cells/ml) (Table 29) were incubated for 24 h with 2, 6, 15, 18, 27 and 45 base sequences containing A, C, G and T. The cells were collected and centrifuged and cell cycle stage was determined.

[8] = tested on: OVCAR-3 human ovarian cancer cells; experiment: Inhibition of OVCAR-3 cell proliferation (MTT); format: cell-based; conditions: 100 μg/ml, 48 h, 5×10^5 cells/ml
Protocol: as §1, §2
OVCAR-3 ovarian cancer cells are a p53 mutated, p21/waf-1/Cip deleted, metastatic human solid tumor model. OVCAR-3 cells (5×10^5 cells/ml) were incubated with 2, 6 and 18 base GT sequences and with a 6 base AGT sequence (Table 11).

[9] = tested on: SK-OV-3 human ovarian cancer cells; experiment: Inhibition of SK-OV-3 cell proliferation (MTT); format: cell-based; conditions: 100 μg/ml, 48 h, 5×10^5 cells/ml
Protocol: as §1, §2
SK-OV-3 ovarian cancer cells are a p53 mutated, p21/waf-1/Cip deleted, p15^ink4B deleted, p16^Ink4 deleted, metastatichuman solid tumor model. SK-OV-3 cells (5×10^5 cells/ml) were incubated with 2, 6 and 18 base GT sequences (Table 12).

Burkitt lymphoma cells = conditions: Mata et al. 1997; cited from earlier work

T1 sequence (O14746 whole entry): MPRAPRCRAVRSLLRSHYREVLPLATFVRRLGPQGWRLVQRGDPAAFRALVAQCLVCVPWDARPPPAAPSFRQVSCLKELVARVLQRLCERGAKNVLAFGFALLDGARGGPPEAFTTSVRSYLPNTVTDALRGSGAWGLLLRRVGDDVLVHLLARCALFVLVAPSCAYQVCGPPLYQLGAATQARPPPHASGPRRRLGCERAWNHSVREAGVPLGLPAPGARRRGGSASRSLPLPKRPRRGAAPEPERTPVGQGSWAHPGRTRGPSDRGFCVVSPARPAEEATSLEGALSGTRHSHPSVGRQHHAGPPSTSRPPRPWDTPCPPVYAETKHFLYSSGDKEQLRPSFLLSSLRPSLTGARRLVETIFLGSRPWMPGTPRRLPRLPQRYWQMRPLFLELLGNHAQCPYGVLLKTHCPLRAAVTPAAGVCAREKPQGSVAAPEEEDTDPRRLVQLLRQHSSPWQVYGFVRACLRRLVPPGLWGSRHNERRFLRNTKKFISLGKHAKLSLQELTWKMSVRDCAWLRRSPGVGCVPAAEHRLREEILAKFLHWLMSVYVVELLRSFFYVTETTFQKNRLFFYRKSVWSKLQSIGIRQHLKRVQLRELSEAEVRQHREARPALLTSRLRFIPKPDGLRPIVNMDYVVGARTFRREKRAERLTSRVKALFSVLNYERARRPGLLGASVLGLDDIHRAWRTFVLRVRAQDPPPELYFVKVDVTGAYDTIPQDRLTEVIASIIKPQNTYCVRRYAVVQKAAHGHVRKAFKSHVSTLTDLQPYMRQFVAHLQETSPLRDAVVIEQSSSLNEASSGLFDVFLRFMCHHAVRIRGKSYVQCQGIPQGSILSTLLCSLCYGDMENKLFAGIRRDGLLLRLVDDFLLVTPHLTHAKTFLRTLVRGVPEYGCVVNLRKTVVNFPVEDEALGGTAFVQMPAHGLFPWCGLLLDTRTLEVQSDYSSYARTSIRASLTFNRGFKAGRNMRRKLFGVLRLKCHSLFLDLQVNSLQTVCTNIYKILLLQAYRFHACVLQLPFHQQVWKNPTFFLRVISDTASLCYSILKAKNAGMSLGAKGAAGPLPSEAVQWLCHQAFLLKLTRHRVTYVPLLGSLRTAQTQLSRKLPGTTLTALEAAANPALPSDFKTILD

## AAAAGAAGTGGGGTGCCCCCACGATCACCAACGATGGTGTGTCCA (unmodified DNA) [BCG A-2, reference compound]
[1]
  ↑ IL-6 (fold increase treated vs control cells): 3.9x
  ↑ IL-12 (fold increase treated vs control cells): 1.6x
IMC tumor
  inhibition of IMC tumor growth: 88%
[2]
  % INHIBITION of Jurkat human leukemia T cell proliferation: 19%

## ACCGATGACGTCGCCGGTGACGGCAACACGACGGCCACCGTGCTG (unmodified DNA) [BCG A-4, reference compound]
[1]
  ↑ IL-6 (fold increase treated vs control cells): 1.8x
  ↑ IL-12 (fold increase treated vs control cells): 0.9x
IMC tumor
  inhibition of IMC tumor growth: 37%
[2]
  % INHIBITION of Jurkat human leukemia T cell proliferation: 9%

## GGGTGG [SEQ ID NO:25 phosphorothioate]
[1]
  ↑ IL-12 (fold increase treated vs control cells): 0.0x
[1]; listed as GsGsGsTsGsGs
  ↑ IL-12 (fold increase treated vs control cells): 0 x
telomerase
  anti-telomerase activity: Neither GT SEQ ID NO:25-phosphorothioate nor GT SEQ ID NO:49-phosphodiester showed any anti-telomerase actvity
[3]
  % of cells in phase: G0/G1: 34.9%
  % of cells in phase: G2/M: 24.7%
  % of cells in phase: SE: 14.8%
  % of cells in phase: SL: 10.6%
  % of cells in phase: SM: 15.0%
  Arrest (cell cycle): None
[4]
  % INHIBITION of LNCaP human prostate cancer cell proliferation: −8%
[2]
  % INHIBITION of Jurkat human leukemia T cell proliferation: 0%
[5]
  % INHIBITION of EL-4 murine T lymphoma cell proliferation: −8%
[6]
  % INHIBITION of MCF-7 human breast cancer cell proliferation: 12%

## TTAGGG (phosphodiester backbone) [SEQ ID NO:49, reference compound]
[1]
  ↑ IL-6 (fold increase treated vs control cells): 6.7x
  ↑ IL-12 (fold increase treated vs control cells): 2.0x
[7]
  % cells in phase: G0/G1: 20.0%
  % cells in phase: G2/M: 15.0%
  % cells in phase: SE: 18.6%
  % cells in phase: SL: 20.7%
  % cells in phase: SM: 25.7%
  Arrest (cell cycle): Mid SM
telomerase; listed as SEQ ID NO:49-phosphodiester
  anti-telomerase activity: Neither GT SEQ ID NO:25-phosphorothioate nor GT SEQ ID NO:49-phosphodiester showed any anti-telomerase actvity
[3]
  % of cells in phase: G0/G1: 24.6%
  % of cells in phase: G2/M: 12.8%
  % of cells in phase: SE: 37.2%
  % of cells in phase: SL: 5.9%
  % of cells in phase: SM: 19.5%
  Arrest (cell cycle): Mid SM
[2]
  % INHIBITION of Jurkat human leukemia T cell proliferation: 45%
[8]
  % INHIBITION of OVCAR-3 human ovarian cancer cell proliferation: 15%
[9]
  % INHIBITION of SK-OV-3 human ovarian cancer cell proliferation: 11%

## TTAGGG (phosphorothioate backbone) [SEQ ID NO:49-phosphorothioate]
Burkitt lymphoma cells
  induction of apoptosis in Burkitt lymphoma cells: induce apoptosis in Burkitt lymphoma cells
  inhibition of telomerase activity: inhibit telomerase activity
